Test results: patent US7846963B2, “2-oxo-heterocyclic compounds and the pharmaceutical compositions comprising the same” (Korea Research Institute of Bioscience and Biotechnology, priority 2003, dated 2010)

Tested on: production of TNF-alpha in RAW 264.7 cells
Experiment: Inhibition of TNF-alpha production in LPS-treated RAW 264.7 cells, ELISA of culture supernatant
Format: cell-based, mouse
Conditions: Mus musculus, RAW264.7, Table 23, LPS 0.3 μg/ml, 24 hours, compounds up to 10 μM, IC50 unit inferred
Procedure: To test the inhibiting activity of the compounds prepared from above Examples on the production of TNF-alpha, the concentration of TNF-alpha in the cell supernatant was measured.
Each 200 μl of RAW 264.7 cells (ATCC, USA), a mouse macrophage cell line was seeded onto each well of 96-well microtiter plate (Nunc, Sweden) to the concentration ranging from 1×10^6 cells/ml to 5×10^6 cells/ml, and incubated in DMEM (Dulbeco's modified eagles medium) media containing 5% FBS (fetal bovine serum) at 37° C. in 5% CO2 incubator.
Various concentrations of the compounds of the present invention ranging from […] to 10 μM and LPS (Sigma, USA) in the final concentration of 0.3 μg/ml were treated to activated cell simultaneously. The treated cells were cultured at 37° C. for 24 hours in 5% CO2 incubator and the cultured cells were collected after the cultivation
And then the concentration of TNF-alpha secreted from the culture supernatant of RAW 264.7 cells was determined by ELISA according to the manufacture's instruction (R&D Systems, Minneapolis, Minn.).
The result was shown in Table 23 (AA: IC50's<1, A: IC50's<5, B: IC50's<10, C: IC50's>10).

Row | Structure (SMILES) | IC50 [µM]
1 | Cc1ccc(CCCN2CC=C(CCC(=O)NO)C2=O)cc1 [Example 40, N-hydroxy-3-[2-oxo-1-(3-p-tolyl-propyl)-2,5-dihydro-1H-pyrrol-3-yl]-propionamide] | < 1
2 | CC(C)c1ccc(CCCN2CC=C(CCC(=O)NO)C2=O)cc1 [Example 43, N-hydroxy-3-{1-[3-(4-isopropyl-phenyl)-propyl]-2-oxo-2,5-dihydro-1H-pyrrol-3-yl]-propionamide] | < 5
3 | O=C(CCC1=CCN(CCCc2ccc(Br)cc2)C1=O)NO [Example 44, 3-{1-[3-(4-bromo-phenyl)-propyl]-2-oxo-2,5-dihydro-1H-pyrrol-3-yl]-N-hydroxy-propionamide] | < 5
4 | O=C(CCC1=CCN(CCCc2ccc(Cl)cc2)C1=O)NO [Example 45, 3-{1-[3-(4-chloro-phenyl)-propyl]-2-oxo-2,5-dihydro-1H-pyrrol-3-yl]-N-hydroxy-propionamide] | < 5
5 | COc1ccc(CCCN2CC=C(CCC(=O)NO)C2=O)cc1 [Example 46, N-hydroxy-3-{1-[3-(4-methoxy-phenyl)-propyl]-2-oxo-2,5-dihydro-1H-pyrrol-3-yl]-propionamide] | < 10
6 | O=C(CCC1=CCN(Cc2ccc3ccccc3c2)C1=O)NO [Example 49, N-hydroxy-3-(1-naphthalene-2-ylmethyl-2-oxo-2,5-dihydro-1H-pyrrol-3-yl)-propionamide] | < 1
7 | CN1CC=C(CCC(=O)NO)C1=O [Example 50, N-hydroxy-3-(1-methyl-2-oxo-2,5-dihydro-1H-pyrrol-3-yl)-propionamide] | > 10
8 | C=CCN1CC=C(CCC(=O)NO)C1=O [Example 51, 3-(1-allyl-2-oxo-2,5-dihydro-1H-pyrrol-3-yl)-N-hydroxy-propionamide] | > 10
9 | O=C(CCC1=CCN(CCc2cccc3ccccc23)C1=O)NO [Example 52, N-hydroxy-3-[1-(2-naphthalene-1-yl-ethyl)-2-oxo-2,5-dihydro-1H-pyrrol-3-yl]-propionamide] | < 5
10 | O=C(CCC1=CCN(CCc2ccc3ccccc3c2)C1=O)NO [Example 53, N-hydroxy-3-[1-(2-naphthalene-2-yl-ethyl)-2-oxo-2,5-dihydro-1H-pyrrol-3-yl]-propionamide] | < 1
11 | O=C(CCC1=CCN(CCc2cccs2)C1=O)NO [Example 54, N-hydroxy-3-[2-oxo-1-(2-thiophen-2-yl-ethyl)-2,5-dihydro-1H-pyrrol-3-yl]-propionamide] | < 5
12 | O=C(CCC1=CCN(CCCc2ccc(-c3ccccc3)cc2)C1=O)NO [Example 55, 3-[1-(3-biphenyl-4-yl-propyl)-2-oxo-2,5-dihydro-1H-pyrrol-3-yl]-N-hydroxy-propionamide] | < 5
13 | COc1ccc(CN2CCC=C(CCC(=O)NO)C2=O)c(OC)c1 [Example 57, 3-[1-(2,4-Dimethoxybenzyl)-2-oxo-1,2,5,6-tetrahydropyridin-3-yl]N-hydroxypropionamide] | < 10
14 | O=C(CCC1=CCCN(Cc2ccccc2)C1=O)NO [Example 58, N-hydroxy-3-(1-benzyl-2-oxo-1,2,5,6-tetrahydro-pyridin-3-yl)-propionic acid] | < 5
15 | O=C(CCC1=CCCN(Cc2ccc([N+](=O)[O-])cc2)C1=O)NO [Example 59, N-hydroxy-3-[1-(4-nitro-benzyl)-2-oxo-1,2,5,6-tetrahydro-pyridin-3-yl)-propionamide] | < 5
16 | O=C(CCC1=CCCN(CCc2ccccc2)C1=O)NO [Example 60] | < 5
17 | COc1ccc(CN2CCC=C(CCC(=O)O)C2=O)c(OC)c1 [Example 63, 3-[1-(2,4-dimethoxybenzyl)-2-oxo-1,2,5,6-tetrahydro-pyridin-3-yl]-propionic acid] | > 10
18 | O=C(O)CCC1=CCCN(Cc2ccccc2)C1=O [Example 64, 3-(1-benzyl-2-oxo-1,2,5,6-tetrahydro-pyridin-3-yl)-propionic acid] | > 10
19 | O=C(O)CCC1=CCCN(Cc2ccc([N+](=O)[O-])cc2)C1=O [Example 65, 3-[1-(4-nitro-benzyl)-2-oxo-1,2,5,6-tetrahydro-pyridin-3-yl)-propionic acid] | > 10
20 | CC(=O)Nc1ccc(CN2CCC=C(CCC(=O)NO)C2=O)cc1 [Example 74, 3-[1-(4-acetylamino-benzyl)-2-oxo-1,2,5,6-tetrahydro-pyridin-3-yl]-N-hydroxy-propionamide] | > 10
21 | O=C(CCC1=CCCN(Cc2ccc(NC(=O)c3ccccc3)cc2)C1=O)NO [Example 75, N-4-[5-(2-hydroxycarbamoyl-ethyl)-6-oxo-3,6-dihydro-2-pyridin-1-yl-methyl]-phenyl-benzamide] | > 10
22 | CS(=O)(=O)N(c1ccc(CN2CCC=C(CCC(=O)NO)C2=O)cc1)S(C)(=O)=O [Example 76, N-hydroxy-3-[1-(4-dimethylsulfonylamino-benzyl)-2-oxo-1,2,5,6-tetrahydro-pyridin-3-yl]-propionamide] | > 10

Row | Structure (SMILES) | IC50 [µM]
23 | CC(=O)Nc1ccc(CN2CCC=C(CCC(=O)O)C2=O)cc1 [Example 78, 3-[1-(4-acetylamino-benzyl)-2-oxo-1,2,5,6-tetrahydro-pyridin-3-yl]-propionic acid] | < 5
24 | O=C(O)CCC1=CCCN(Cc2ccc(NC(=O)c3ccccc3)cc2)C1=O [Example 79, 3-[1-(4-benzoylamino-benzyl)-2-oxo-1,2,5,6-tetrahydro-pyridin-3-yl]-propionic acid] | < 5
25 | Cc1ccc(S(=O)(=O)Nc2ccc(CN3CCC=C(CCC(=O)O)C3=O)cc2)cc1 [Example 80] | < 1
26 | O=C(CCC1CCCN(CCc2ccccc2)C1=O)NO (centres unmarked) [Example 81, N-hydroxy-3-(2-oxo-1-phenethyl-piperidine-3-yl)-propionamide] | < 5
27 | COc1ccc(CN2CCC=C(CC(=O)NO)C2=O)c(OC)c1 [Example 82, 2-[1-(2,4-dimethoxy-benzyl)-2-oxo-1,2,5,6-tetrahydro-pyridin-3-yl]-N-hydroxy-acetamide] | < 5
28 | O=C(CC1=CCCN(Cc2ccccc2)C1=O)NO [Example 83, 2-(1-benzyl-2-oxo-1,2,5,6-tetrahydro-pyridin-3-yl)-N-hydroxy-acetamide] | < 5
29 | O=C(CC1=CCCN(Cc2ccc([N+](=O)[O-])cc2)C1=O)NO [Example 84, N-hydroxy-2-[1-(4-nitro-benzyl)-2-oxo-1,2,5,6-tetrahydro-pyridin-3-yl)-N-hydroxy-acetamide] | < 5
30 | O=C(CC1=CCCN(CCCc2ccccc2)C1=O)NO [Example 85, N-hydroxy-2-[2-oxo-1-(3-phenyl-propyl)-1,2,5,6-tetrahydro-pyridin-3-yl]-N-hydroxy-acetamide] | < 10
31 | O=C(CC1=CCCN(CCCCc2ccccc2)C1=O)NO [Example 86, N-hydroxy-2-[2-oxo-1-(4-phenyl-butyl)-1,2,5,6-tetrahydro-pyridin-3-yl]-N-hydroxy-acetamide] | < 5
32 | COc1ccc(CN2CCC=C(CC(=O)O)C2=O)c(OC)c1 [Example 87, [1-(2,4-dimethoxy-benzyl)-2-oxo-1,2,5,6-tetrahydro-pyridin-3-yl]-acetic acid] | < 1
33 | O=C(O)CC1=CCCN(Cc2ccccc2)C1=O [Example 88, (1-benzyl-2-oxo-1,2,5,6-tetrahydro-pyridin-3-yl)-acetic acid] | < 1
34 | O=C(O)CC1=CCCN(CCc2ccccc2)C1=O [Example 89, (2-oxo-1-phenethyl-1,2,5,6-tetrahydro-pyridin-3-yl)-acetic acid] | < 5
35 | O=C(O)CC1=CCCN(CCCCc2ccccc2)C1=O [Example 91, [2-oxo-1-(4-phenyl-butyl)-1,2,5,6-tetrahydro-pyridin-3-yl)-acetic acid] | < 10
36 | COc1ccc(CN2CCCC(CC(=O)NO)C2=O)c(OC)c1 (centres unmarked) [Example 92, 2-[1-(2,4-dimethoxy-benzyl)-2-oxopiperidine-3-yl]-N-hydroxy-acetamide] | < 5
37 | O=C(CC1CCCN(CCc2ccccc2)C1=O)NO (centres unmarked) [Example 93, (2-oxo-1-phenethyl-piperidine-3-yl)-N-hydroxy-acetamide] | < 5
38 | COc1ccc(CN2CCC=C(CCCC(=O)NO)C2=O)cc1 [Example 95, 4-[1-(4-methoxy-benzyl)-2-oxo-1,2,5,6-tetrahydro-pyridin-3-yl]-N-hydroxy-butylamide] | < 5
39 | O=C(CCCC1=CCCN(CCc2ccccc2)C1=O)NO [Example 96, 4-(1-phenethyl-2-oxo-1,2,5,6-tetrahydro-pyridin-3-yl)-N-hydroxy-butylamide] | < 5
40 | O=C(CCCC1=CCCN(CCCc2ccccc2)C1=O)NO [Example 97, N-hydroxy-4-[2-oxo-1-(3-phenyl-propyl)-1,2,5,6-tetrahydro-pyridin-3-yl]-butylamide] | < 5
41 | O=C(CCCC1=CCCN(CCCCc2ccccc2)C1=O)NO [Example 98] | < 5
42 | O=C(O)CCC1=CCCNC1=O [Example 99, 3-(2-oxo-1,2,5,6-tetrahydro-pyridin-3-yl)-propionic acid] | < 10
43 | O=C(CCC1=CCCNC1=O)NOCc1ccccc1 [Example 100, N-Benzyloxy-3-(2-oxo-1,2,5,6-tetrahydro-pyridin-3-yl)-propionamide] | < 5
44 | C=CCN1CCC=C(CCC(=O)NO)C1=O [Example 101, 3-(1-Allyl-2-oxo-1,2,5,6-tetrahydro-pyridin-3-yl)-N-hydroxy-propionamide] | < 1
